Source: article PMC11876601 (Molecular Systems Biology, 2025)
Several values for one entry are separate records, joined by “and”; a condition that tells them apart may be missing. Identical values can stand only once. Like-named read-outs stand apart in the source and are kept apart here.

Test system: AsPC-1 cells
Experiment: Cell proliferation assay, chemodrug + ATR inhibitor (Incucyte confluence, 72 h);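 note: underlying read-out for every value is AsPC-1 confluence after 72 h incubation at 37 °C and 5% CO2, divided by that well's starting confluence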
Conditions: for Raw data (confluence at 72 h/confluence at 0 h) / AsPC-1 viability (ratio) / AsPC-1 viability mean (ratio): Gartisertib experiment; for EC50: Homo sapiens; for Ratio: Response / Response vehicle (mean)
[1] = replicate R2, titrated drug dose 300 nM
[2] = replicate R2, titrated drug dose 1000 nM
[3] = replicate R2, titrated drug dose 3000 nM
[4] = replicate R2, titrated drug dose 10000 nM
[5] = replicate R3, titrated drug dose 3 nM
[6] = replicate R3, titrated drug dose 10 nM
[7] = replicate R3, titrated drug dose 30 nM
[8] = replicate R3, titrated drug dose 100 nM
[9] = replicate R3, titrated drug dose 300 nM
[10] = replicate R3, titrated drug dose 1000 nM
[11] = replicate R3, titrated drug dose 3000 nM
[12] = replicate R3, titrated drug dose 10000 nM

Protocol: Cells were seeded at 5000 cells/well into 96-well flat bottom plates (Eppendorf) and allowed to attach overnight. […] Cells were incubated for 72 h at 37 °C and 5% CO2. Cell confluence readouts at 72 h were either normalized to their initial confluence using the Incucyte software (AsPC-1) or used without prior normalization (all others). […] Each experiment was performed in triplicates, the data was plotted as mean ± standard deviation (s.d.).

With `Nc1nn2cc(F)cnc2c1C(=O)Nc1cncc(F)c1N1CCC(C(=O)N2CCN(C3COC3)CC2)CC1` [Gartisertib] the “Raw data (confluence at 72 h/confluence at 0 h)” value (from here on “Raw data”) (replicate R2, titrated drug dose 100 nM) was 3.03, the “AsPC-1 viability (ratio)” value [1] was 0.38 ratio and the “AsPC-1 viability mean (ratio)” value [1] was 0.4 ratio. The “Raw data” value [1] was 1.58, the “AsPC-1 viability (ratio)” value [2] was 0.31 ratio and the “AsPC-1 viability mean (ratio)” value [2] was 0.53 ratio. For the same molecule, the “Raw data” value [2] was 1.27, the “AsPC-1 viability (ratio)” value [3] was 0.28 ratio and the “AsPC-1 viability mean (ratio)” value [3] was 0.92 ratio. The “Raw data” value [3] was 1.17, the “AsPC-1 viability (ratio)” value [4] was 0.29 ratio and the “AsPC-1 viability mean (ratio)” value [4] was 0.47 ratio. The “Raw data” value [4] was 1.19, the “AsPC-1 viability (ratio)” value [5] was 1.02 ratio and the “AsPC-1 viability mean (ratio)” value [5] was 0.58 ratio. For the same molecule, the “Raw data” value [5] was 4.1, the “AsPC-1 viability (ratio)” value [6] was 0.97 ratio and the “AsPC-1 viability mean (ratio)” value [6] was 0.53 ratio. For the same molecule, the “Raw data” value [6] was 3.9, the “AsPC-1 viability (ratio)” value [7] was 0.94 ratio and the “AsPC-1 viability mean (ratio)” value [7] was 0.35 ratio. For the same molecule, the “Raw data” value [7] was 3.77, the “AsPC-1 viability (ratio)” value [8] was 0.8 ratio and the “AsPC-1 viability mean (ratio)” value [8] was 0.35 ratio. For the same molecule, the “Raw data” value [8] was 3.2, the “AsPC-1 viability (ratio)” value [9] was 0.41 ratio and the “AsPC-1 viability mean (ratio)” value [9] was 0.34 ratio. For the same molecule, the “Raw data” value [9] was 1.63, the “AsPC-1 viability (ratio)” value [10] was 0.33 ratio and the “AsPC-1 viability mean (ratio)” value [10] was 0.47 ratio. The “Raw data” value [10] was 1.34, the “AsPC-1 viability (ratio)” value [11] was 0.29 ratio and the “AsPC-1 viability mean (ratio)” value [11] was 0.35 ratio. For the same molecule, the “Raw data” value [11] was 1.18, the “AsPC-1 viability (ratio)” value [12] was 0.25 ratio and the “AsPC-1 viability mean (ratio)” value [12] was 0.34 ratio. The “Raw data” value [12] was 1, the EC50 (ASPC1, 72 h, AsPC1, Experiment ATRi (ATR inhibitor alone), single replicates R1-R3) was 107 nM and the EC50 (ASPC1, 72 h, read-out: EC50 (cell growth), ATR inhibitor as single agent) was 128 nM. It also gave an EC50 (ASPC1, 72 h, read-out: EC50 mean [nM], AsPC1, Experiment ATRi (ATR inhibitor alone), mean of replicates) of 128 nM, an EC50 (ASPC1, 72 h, read-out: pEC50, AsPC1 (converted), Experiment ATRi (ATR inhibitor alone), single replicates R1-R3) of 107 nM and an EC50 (ASPC1, read-out: EC50 mean [nM], AsPC1, Experiment ATRi (ATR inhibitor alone), mean of replicates) of 128 nM. The Ratio (GEM 0 nM, ATRi 3 nM) was 0.90 and 0.92 and 1.01 and 0.83 and 1.02 and 0.89, the Ratio (GEM 0 nM, ATRi 10 nM) was 1.01 and 1.02 and 1.00 and 0.91 and 0.97 and 0.98 and the Ratio (GEM 0 nM, ATRi 30 nM) was 0.95 and 0.94 and 0.89. For the same molecule, the Ratio (GEM 0 nM, ATRi 100 nM) was 0.63 and 0.73 and 0.80, the Ratio (GEM 0 nM, ATRi 300 nM) was 0.44 and 0.38 and 0.41 and the Ratio (GEM 0 nM, ATRi 1000 nM) was 0.37 and 0.31 and 0.33. The Ratio (GEM 0 nM, ATRi 3000 nM) was 0.33 and 0.28 and 0.29, the Ratio (GEM 0 nM, ATRi 10000 nM) was 0.27 and 0.29 and 0.25 and the Ratio (GEM 1 nM + ATRi 3 nM) was 0.98 and 0.92 and 0.96. For the same molecule, the Ratio (GEM 1 nM + ATRi 10 nM) was 1.01 and 0.95 and 0.97, the Ratio (GEM 1 nM + ATRi 30 nM) was 0.89 and 0.91 and 0.87 and the Ratio (GEM 3 nM + ATRi 3 nM) was 0.98 and 0.93. For the same molecule, the Ratio (GEM 3 nM + ATRi 10 nM) was 0.94 and 0.89 and 0.91, the Ratio (GEM 3 nM + ATRi 30 nM) was 0.95 and 0.82 and 0.85 and the Ratio (GEM 10 nM + ATRi 3 nM) was 0.87 and 0.86. For the same molecule, the Ratio (GEM 10 nM + ATRi 10 nM) was 0.79 and 0.67 and 0.68, the Ratio (GEM 10 nM + ATRi 30 nM) was 0.59 and 0.46 and 0.49 and the Ratio (GEM 30 nM + ATRi 3 nM) was 0.66 and 0.55 and 0.53. The Ratio (GEM 30 nM + ATRi 10 nM) was 0.51 and 0.39 and 0.41, the Ratio (GEM 30 nM + ATRi 30 nM) was 0.55 and 0.40 and 0.39 and the Ratio (GEM 100 nM + ATRi 3 nM) was 0.52 and 0.40 and 0.41. For the same molecule, the Ratio (GEM 100 nM + ATRi 10 nM) was 0.49 and 0.37 and 0.39, the Ratio (GEM 100 nM + ATRi 30 nM) was 0.48 and 0.38 and 0.37 and the Ratio (GEM 300 nM + ATRi 3 nM) was 0.49 and 0.39 and 0.38. For the same molecule, the Ratio (GEM 300 nM + ATRi 10 nM) was 0.47 and 0.37, the Ratio (GEM 300 nM + ATRi 30 nM) was 0.46 and 0.35 and 0.36 and the Ratio (GEM 1000 nM + ATRi 3 nM) was 0.49 and 0.39. The Ratio (GEM 1000 nM + ATRi 10 nM) was 0.44 and 0.38 and 0.36, the Ratio (GEM 1000 nM + ATRi 30 nM) was 0.43 and 0.35 and the Ratio (GEM 3000 nM + ATRi 3 nM) was 0.43 and 0.38 and 0.37. The Ratio (GEM 3000 nM + ATRi 10 nM) was 0.43 and 0.35 and 0.34 and the Ratio (GEM 3000 nM + ATRi 30 nM) was 0.41 and 0.34.
